Assay [1] concerns Northern house mosquitoes (Culex pipiens). The assay can be described thus: Short-term spatial repellency, static air repellency chamber. The class given is in vivo. To be noted: 1 mL of 0.5% solution in acetone; for pest or weed control at 0.5 %: Culex pipiens, filter paper, air-dried 15 min. How it is done:
(§1) Northern house mosquitoes (Culex pipiens), a primary carrier of West Nile virus in eastern North America, were obtained from an established colony in the Medical Entomology Laboratory in the Department of Entomology at Iowa State University of Science and Technology, Ames Iowa. Mosquito rearing was performed by established protocols that are maintained by the Medical Entomology Laboratory. Repellency bioassays were performed with adult female mosquitoes that emerged 5-7 days previously. […] Mosquitoes, prior to testing, were held at 27° C., 80% relative humidity, and on a 16:8 hr light:dark photoperiod.
Repellency bioassays were performed using a static air repellency chamber, which has been described in various publications by the Pesticide Toxicology Laboratory at Iowa State University of Science and Technology, Ames, Iowa Briefly, a 9-cm×60-cm glass tube was used to monitor the distribution of mosquitoes at 15 min, 30 min, 60 min, 90 min, 120 min, and 150 min after introducing mosquitoes into the static air repellency chamber. […] One end of the spatial chamber contained a treated filter paper, whereas the other (untreated) end of the spatial chamber was not treated with compound. Controls contained filter papers treated with acetone, the solvent used to make the 0.5% solutions. Each end of the repellency chamber was secured with a 100-mm Petri dish using celluloid tape. After securing the petri dishes with corresponding treated or untreated filter papers to the spatial chamber, mosquitoes were anesthetized with carbon dioxide, and approximately 20 female mosquitoes were placed into each repellency chamber for one replicate. The opening of the spatial repellency chamber was secured with celluloid tape to prevent their escape. Chambers were oriented in opposite directions from the previous replicate to account for any directional effect. Four replicates were performed for data analysis for both the control and treatment groups.
Data for spatial repellency, the percentage repellency, is reported at each of the respective time points in the figures and tables mentioned below. The percentage spatial repellency is the examination of the distribution of mosquitoes and is calculated using the following equation: […]

The test system is the same in assay [2]. The assay can be described thus: Long-term spatial repellency, static air repellency chamber, filter papers air-dried 5 hours. The class given is in vivo. The settings on record: air-dried 5 hours; for pest or weed control at 0.5 %: Culex pipiens, 1 mL of 0.5% solution in acetone. How it is done: as §1, with “were” for “emerged”, “post-emergent.” for “previously.”
Repellency bioassays were performed using a static air repellency chamber, which has been described in various publications by the Pesticide Toxicology Laboratory at Iowa State University of Science and Technology, Ames, Iowa Briefly, a 9-cm×60-cm glass tube was used to monitor the distribution of mosquitoes at 15 min, 30 min, 60 min, 90 min, 120 min, and 150 min after introducing mosquitoes into the static air repellency chamber. Treated filter papers were treated with 1 mL of 0.5% solution in acetone of the terpenoid analogs created in the lab and were exposed to ambient air for 5 hours before they were introduced into the spatial chamber for testing. This is a slight modification of the method described in Example 2, so as to evaluate the residual repellent character of these compounds on a treated surface after 5 hours. One end of the spatial chamber contained a treated filter paper, whereas the other (untreated) end of the spatial chamber was not treated with compound. Controls contained filter papers treated with acetone, the solvent used to make the 0.5% solutions. Each end of the repellency chamber was secured with a 100-mm Petri dish using celluloid tape. After securing the petri dishes with corresponding treated or untreated filter papers to the spatial chamber, mosquitoes were anesthetized with carbon dioxide, and approximately 20 female mosquitoes were placed into each repellency chamber for one replicate. The opening of the spatial repellency chamber was secured with celluloid tape to prevent their escape. Chambers were oriented in opposite directions from the previous replicate to account for any directional effect. Four replicates were performed for data analysis for both the control and treatment groups.
Data for spatial repellency, the percentage repellency, is reported at each of the respective time points in the figures and tables mentioned below in this disclosure. The percentage spatial repellency is the examination of the distribution of mosquitoes and is calculated using the following equation: […]

Setting [3] is: 0.25 h, 15 min after introduction, read-out: Short-term Percentage repellency 15 min.
[4] abbreviates: 1.5 h, 90 min, read-out: Short-term Percentage repellency 90 min.
The mark [5] stands for this setting: 2.5 h, 150 min, read-out: Short-term Percentage repellency 150 min.
Where [6] appears, read: 0.25 h, 15 min, read-out: Long-term Percentage repellency 15 min.
Where [7] appears, read: 1.5 h, 90 min, read-out: Long-term Percentage repellency 90 min.
Where [8] appears, read: 2.5 h, 150 min, read-out: Long-term Percentage repellency 150 min.

The structures appear in SMILES notation. Structures can show the parent of a compound that is named as a salt.

Consider `CC1CCC(C(C)C)C(OC(=O)C2CC2)C1` (stereo not shown) [Compound 1033B, menthyl cyclopropanecarboxylate], for which the “Short-term spatial repellency, in words” value in assay [1] is given as “very effective spatial repellent”. Further, the “Short-term percentage repellency 30 min” value in assay [1] amounted to 47.5%. In assay [1] (120 minutes), the “Short-term percentage repellency 120 min” value worked out at 95%. In addition, the pest or weed control at 0.5 % was 15% in assay [1] (setting [3]); 95% in assay [1] (setting [4]); 92.5% in assay [1] (setting [5]); 65% in assay [2] (setting [6]); 71.7% in assay [2] (setting [7]); 82.5% in assay [2] (setting [8]). Besides, the “Long-term repellency, in words” value in assay [2] (0.5% solution) is “much greater than DEET”.

As for `CC(C)=CCCC(C)CCOC(=O)CC(C)C` (stereo not shown) [Compound 1034B, citronellyl isovalerate], the pest or weed control at 0.5 % was 17.5% in assay [1] (setting [3]); 77.5% in assay [1] (setting [4]); 82.5% in assay [1] (setting [5]); 30% in assay [2] (setting [6]); 30% in assay [2] (setting [7]); 32.5% in assay [2] (setting [8]).

With `CC(C)=CCCC(C)CCOC(=O)C(C)(C)C` (stereo not shown) [Compound 1036A, citronellyl pivalate], the pest or weed control at 0.5 % in assay [1] (setting [3]) amounted to 25%; in assay [1] (setting [4]), 90%; in assay [1] (setting [5]), 92.5%; in assay [2] (setting [6]), 27.5%; in assay [2] (setting [7]) it was 17.5%; in assay [2] (setting [8]) it was 20%.

With `CC(C)=CCCC(C)CC(=O)OCCO` (stereo not shown) [Compound 1052S3, 2-hydroxyethyl citronellate], the pest or weed control at 0.5 % in assay [2] (setting [6]) was found to be 37.5%; in assay [2] (setting [7]), 65%; in assay [2] (setting [8]) it was 75%.

For `Cc1ccc(C(C)C)c(OC(=O)C2CC2)c1` [Compound 1055A, thymol cyclopropanecarboxylate], the “Short-term spatial repellency, in words” value in assay [1] is “very effective spatial repellent”. Besides, the “Short-term percentage repellency 30 min” value in assay [1] is 58%. Moreover, the pest or weed control at 0.5 % was -10% in assay [1] (setting [3]); 87.5% in assay [1] (setting [4]); 95% in assay [1] (setting [5]); 0% in assay [2] (setting [6]); 32.5% in assay [2] (setting [7]); 52.5% in assay [2] (setting [8]).

Take `Cc1ccc(C(C)C)c(OC(=O)CC(C)C)c1` [Compound 1055B, thymyl isovalerate]: the pest or weed control at 0.5 % in assay [1] (setting [3]) worked out at 12.5%; in assay [1] (setting [4]), 65%; in assay [1] (setting [5]), 77.5%; in assay [2] (setting [6]) it was 0%; in assay [2] (setting [7]), 22.5%; in assay [2] (setting [8]), 27.5%.

With `C#CCOC(=O)CC(C)CCC=C(C)C` (stereo not shown) [Compound 1060D, propargyl citronellate], the pest or weed control at 0.5 % in assay [1] (setting [3]) was 60%; in assay [1] (setting [4]), 72.5%; in assay [1] (setting [5]) it was 70%; in assay [2] (setting [6]), 15%; in assay [2] (setting [7]) it was 62.5%; in assay [2] (setting [8]) it was 77.5%.

For `Cc1ccc(C(C)C)c(OC=O)c1` [Compound 1107A, thymyl formate], the pest or weed control at 0.5 % was found to be 35% in assay [1] (setting [3]); 80% in assay [1] (setting [4]); 75% in assay [1] (setting [5]); 25% in assay [2] (setting [6]); 17.5% in assay [2] (setting [7]); 22.5% in assay [2] (setting [8]).

As for `Cc1ccc(C(C)C)cc1OC=O` [Compound 1107B, carvacryl formate], the pest or weed control at 0.5 % came to 30% in assay [2] (setting [6]), 37.5% in assay [2] (setting [7]) and 42.5% in assay [2] (setting [8]).

With `Cc1ccc(C(C)C)c(OC(=O)C(C)(C)F)c1` [Compound 1121A, thymyl 2-fluoroisobutyrate], the pest or weed control at 0.5 % in assay [1] (setting [3]) turned out to be 77.5%; in assay [1] (setting [4]) it was 97.5%; in assay [1] (setting [5]), 97.5%; in assay [2] (setting [6]), 22.5%; in assay [2] (setting [7]) it was 50%; in assay [2] (setting [8]), 65%.

As to `CC(C)=CCC/C(C)=C/C(=O)OCC1CC1` [Compound 2020, cyclopropylmethyl geranate], the results for the pest or weed control at 0.5 % in assay [2] (setting [6]), in assay [2] (setting [7]) and in assay [2] (setting [8]) were 40%, 45% and 40%, respectively.

Regarding `CC(C)=CCC/C(C)=C/COC(=O)C1CC1` [Compound 2023A, geranyl cyclopropanecarboxylate], the pest or weed control at 0.5 % worked out at 45% in assay [1] (setting [3]); 42.5% in assay [1] (setting [4]); 45% in assay [1] (setting [5]); 45% in assay [2] (setting [6]); 42.5% in assay [2] (setting [7]); 45% in assay [2] (setting [8]). Further, in assay [2] (0.5% solution), the “Long-term repellency, in words” value is “much greater than DEET”. Besides, the “Long-term percentage repellency 60 min” value in assay [2] (0.5% solution, 60 minutes) was found to be 47.5%.

As to `CC(C)=CCC/C(C)=C\COC(=O)C1CC1` [Compound 2023B, neryl cyclopropanecarboxylate], the pest or weed control at 0.5 % came out at 10% in assay [1] (setting [3]); 52.5% in assay [1] (setting [4]); 60% in assay [1] (setting [5]); 10% in assay [2] (setting [6]); 52.5% in assay [2] (setting [7]); 60% in assay [2] (setting [8]).

Take `C=C(C)C1CC=C(COC(=O)C2CCC2)CC1` (stereo not shown) [Compound 2033, perillyl cyclobutanecarboxylate]: in assay [2] (setting [6]), the pest or weed control at 0.5 % amounted to 27.5%.

For `O=C(OC/C=C/c1ccccc1)C1CCC1` [Compound 2039, cinnamyl cyclobutanecarboxylate], the pest or weed control at 0.5 % worked out at 30% in assay [1] (setting [3]), 40% in assay [2] (setting [6]), 57.5% in assay [2] (setting [7]) and 60% in assay [2] (setting [8]).

For `Cc1ccc(C(C)C)c(OC(=O)C2CCCCC2)c1` [Compound 2085, thymyl cyclohexanecarboxylate], the pest or weed control at 0.5 % was 17.5% in assay [1] (setting [3]); 35% in assay [1] (setting [4]); 50% in assay [1] (setting [5]); 17.5% in assay [2] (setting [6]); 35% in assay [2] (setting [7]); 50% in assay [2] (setting [8]).

With `CC(C)=CCCC(C)CC(=O)OCC1(C)COC1` (stereo not shown) [Compound 3070, (3-methyloxetan-3-yl) methyl citronellate], the pest or weed control at 0.5 % in assay [1] (setting [3]) is 15%; in assay [1] (setting [4]), 42.5%; in assay [1] (setting [5]), 32.5%.

`CC(C)=CCCC(C)CC(=O)OC1COC1` (stereo not shown) [Compound 3071, 3-oxetanyl citronellate]: the pest or weed control at 0.5 % in assay [1] (setting [3]) turned out to be 2.5%; in assay [1] (setting [4]), 37.5%; in assay [1] (setting [5]), 40%.
